In article PMC9302014, “PEGylation improves the therapeutic potential of dimerized translationally controlled tumor protein blocking peptide in ovalbumin-induced mouse model of airway inflammation” (Drug Delivery, 2022):

System: OVA-induced allergic airway inflammation
Assay: Mouse model of OVA-induced allergic airway inflammation
Format: in vivo
Settings: single 1 mg/kg intraperitoneal on day 32, n = 10-12
Method: Sixty female BALB/c mice, 6–7 weeks of age, were randomly divided into five groups (12 mice per group) and intraperitoneally sensitized on days 1 and 14 with 50 μg OVA emulsified in 2 mg aluminum hydroxide in a total volume of 200 μl. The control group of naïve mice received the same volume of PBS for the duration of the experiment. Two weeks after the second sensitization, the animals were challenged with 200 μg of OVA through intranasal administration under light anesthesia on days 28, 30, 32, and 34. […]. On day 35, the mice were sacrificed and BALF, lung tissue, and serum were collected for further analysis.
Mice were anesthetized, and the trachea was excised, and cannulated with a polyethylene tube. The lungs were lavaged with 0.8 ml of PBS four times, and 0.6 ml of BALF was obtained. The collected lavage fluid was cooled on ice and centrifuged at 1,000 rpm for 10 min at 4 °C. The supernatant was used for ELISA assays. The pellets were resuspended in 0.1 ml PBS, and the total inflammatory cell numbers were quantified using a Hemavet (Drew Scientific Inc., Oxford, CT).
After lavage, the right lung lobe was isolated and stored at −80 °C until required. The lung tissue was homogenized in 50 mM Tris-HCl buffer (pH 7.4) containing 150 mM NaCl, 1 mM EDTA, 0.25% deoxycholate, and a protease inhibitor (Sigma) using a tissuelyser II (Qiagen). The lung homogenates were centrifuged at 10,000 × g for 10 min, and the supernatants were collected and used for ELISA assay.
The left lung lobe was fixed in 4% formaldehyde, embedded in paraffin, and sectioned at a thickness of 4 μm. The sections were stained with hematoxylin and eosin (H&E) to detect infiltration of inflammatory cells and with periodic acid-Schiff (PAS) staining for the analysis of goblet cells hyperplasia/mucus production. The H&E stained sections were scored for the presence of inflammatory cells using the following scale: (0) = absent, (1) = rare, (2) = mild, (3) = moderate, (4) = severe. Scoring was performed by 6 observers in a blinded manner. Also, the area of H&E stained cells was quantified in the selected field, and the area of PAS-positive cells per bronchiole was expressed as the % of the total epithelial area using ImageJ software (National Institute of Health, Bethesda, MD).
Statistical analysis was performed using GRAPHPAD^TM PRISM version 8.0 for Windows (GraphPad Software, San Diego, CA). Statistical significance was determined using Student’s two-tailed unpaired t-test for comparisons between two groups. For more than 3 groups, a one-way analysis of variance (ANOVA) was followed by Tukey’s test. Error bars were expressed as the mean ± the standard error of the mean (SEM) of 10 to 12 mice per group. Significant differences between means were defined as p < 0.05.

C[C@@H]1C[C@H]2[C@@H]3CCC4=CC(=O)C=C[C@]4(C)[C@@]3(F)[C@@H](O)C[C@]2(C)[C@@]1(O)C(=O)CO [Dex, dexamethasone]
levels of IL-4, IL-5, and IL-13 in lung homogenates increased by OVA challenge (ELISA): suppressed
number of lymphocytes in BALF compared to the OVA group: did not significantly suppress
number of monocytes in BALF compared to the OVA group: did not significantly suppress
number of total cells (total leukocytes) in BALF compared to the OVA-challenged group: no difference
